Reference: paper PMC9120017, “Inhibition mechanism of the chloride channel TMEM16A by the pore blocker 1PBC” (Nature Communications, 2022)
Like-named read-outs stand apart in the source and are kept apart here.

Biological target: T1, mouse TMEM16A mutant Q649A (Mus musculus, UniProt Q8BHY3, Q649A)
T1 construct: expressed in transfected cells; host or cells: HEK293T
T1 sequence (Q8BHY3 1-960 Q649A): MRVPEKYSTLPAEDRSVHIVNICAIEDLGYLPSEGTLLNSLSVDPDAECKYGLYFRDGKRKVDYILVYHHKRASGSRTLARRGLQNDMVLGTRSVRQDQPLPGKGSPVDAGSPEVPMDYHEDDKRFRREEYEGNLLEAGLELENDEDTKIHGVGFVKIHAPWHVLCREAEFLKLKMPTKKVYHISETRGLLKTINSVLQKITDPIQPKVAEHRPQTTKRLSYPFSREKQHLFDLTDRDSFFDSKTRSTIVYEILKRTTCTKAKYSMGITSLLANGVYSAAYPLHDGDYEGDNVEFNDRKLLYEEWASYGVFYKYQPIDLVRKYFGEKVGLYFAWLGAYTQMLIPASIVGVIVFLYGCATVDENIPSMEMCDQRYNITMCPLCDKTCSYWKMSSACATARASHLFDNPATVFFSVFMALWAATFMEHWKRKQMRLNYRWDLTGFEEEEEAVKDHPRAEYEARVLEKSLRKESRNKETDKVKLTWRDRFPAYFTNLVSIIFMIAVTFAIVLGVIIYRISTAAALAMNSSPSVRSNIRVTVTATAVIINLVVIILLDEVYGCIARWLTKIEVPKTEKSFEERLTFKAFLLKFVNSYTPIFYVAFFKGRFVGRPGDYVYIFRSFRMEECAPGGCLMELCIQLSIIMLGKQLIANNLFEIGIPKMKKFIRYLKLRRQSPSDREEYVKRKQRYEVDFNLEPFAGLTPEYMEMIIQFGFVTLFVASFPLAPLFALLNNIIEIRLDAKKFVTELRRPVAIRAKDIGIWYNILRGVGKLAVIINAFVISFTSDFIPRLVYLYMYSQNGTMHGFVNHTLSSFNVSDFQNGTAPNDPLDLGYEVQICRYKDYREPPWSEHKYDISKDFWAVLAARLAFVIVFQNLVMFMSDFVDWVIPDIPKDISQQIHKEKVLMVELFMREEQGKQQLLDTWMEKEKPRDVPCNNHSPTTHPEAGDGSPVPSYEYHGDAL
Test: Inside-out patch recording of 1PBC block, constitutively active mutant Q649A
Assay type: cell-based
Conditions: for remaining activity at 3 µM: 3 µM 1PBC; for remaining activity at 10 µM: 10 µM 1PBC; for remaining activity at 30 µM: 30 µM 1PBC
Experimental: HEK293T cells (ATCC CRL-1573) were maintained in Dulbecco’s modified Eagle’s medium (DMEM; Sigma-Aldrich) supplemented with 10 U ml^−1 penicillin, 0.1 mg ml^−1 streptomycin (Sigma-Aldrich), 2 mM L-glutamine (Sigma-Aldrich), and 10% FBS (Sigma-Aldrich) in a humidified atmosphere containing 5% CO2 at 37 °C. HEK293S GnTI^− cells (ATCC CRL-3022) were maintained in HyClone HyCell TransFx-H medium (GE Healthcare) supplemented with 10 U ml^−1 penicillin, 0.1 mg ml^−1 streptomycin, 4 mM L-glutamine, 0.15% poloxamer 188 (Sigma-Aldrich), and 1% FBS in an atmosphere containing 5% CO2 at 185 rpm at 37 °C. The ac splice variant of mouse TMEM16A (UniProt ID: Q8BHY3), mouse TMEM16B (UniProt ID: Q8CFW1), or mouse TMEM16F (UniProt ID: Q6P9J9) bearing a 3C cleavage site, a Venus YFP, a Myc tag, and a Streptavidin-binding peptide (SBP) downstream of the open reading frame in a modified pcDNA3.1 vector (Invitrogen) were used as described previously[21],[31]. Mutations were introduced using a modified QuikChange method[58] and were verified by sequencing.
HEK293T cells were transfected with 3–4 μg DNA per 6 cm Petri dish using the calcium phosphate co-precipitation method and were used within 24–96 h after transfection. Recordings were performed on inside-out patches excised from HEK293T cells expressing the construct of interest. Patch pipettes were pulled from borosilicate glass capillaries (O.D. 1.5 mm, I.D. 0.86 mm, Sutter Instrument) and were fire-polished with a microforge (Narishige) before use. Pipette resistance was typically 3–8 MΩ when filled with the recording solutions detailed below. Seal resistance was typically 4 GΩ or higher. Voltage-clamp recordings were made using Axopatch 200B, Digidata 1550, and Clampex 10.7 (Molecular Devices). Analog signals were filtered with the in-built 4-pole Bessel filter at 10 kHz and were digitized at 20 kHz. Solution exchange was achieved using a gravity-fed system through a theta glass pipette mounted on an ultra-fast piezo-driven stepper (Siskiyou). […] All recordings were performed at 20 °C.
A symmetrical ionic condition was used throughout. Stock solution with Ca^2+-EGTA contained 150 mM NaCl, 5.99 mM Ca(OH)2, 5 mM EGTA, and 10 mM HEPES at pH 7.40. Stock solution with EGTA contained 150 mM NaCl, 5 mM EGTA, and 10 mM HEPES at pH 7.40. Free Ca^2+ concentrations were adjusted by mixing the stock solutions at the required ratios calculated using the WEBMAXC program (http://web.stanford.edu/~cpatton/webmaxcS.htm). Patch pipettes were filled with the stock solution with Ca^2+-EGTA, which has a free Ca^2+ concentration of 1 mM. 1PBC (ChemBridge) stock was reconstituted in anhydrous DMSO (Sigma-Aldrich) at 100 mM and stored at −20 °C. Working solutions with 1PBC were prepared by serial dilution. Unless otherwise stated, experiments were performed at a saturating Ca^2+ concentration as shown in Supplementary Table 1 and the primary data were corrected for current rundown as described previously[21],[25].
Concentration-response relations, obtained from the ratio of the I-V plots before and after the application of the blocker, were fitted to the Hill equation,1 I/Imax=1/1+IC50/[blocker]^h where I/Imax is the normalized current responses, IC50 defines the concentration at which inhibition is at its half-maximum, and h is the Hill coefficient.

[1] = 0 mV, 2 µM Ca2+, read-out: I/Imax
[2] = 0 mV, zero Ca2+, read-out: I/Imax

- I/Imax_+80mV (0Ca, 3 μM 1PBC): 0.8995
- I/Imax_-80mV (0Ca, 3 μM 1PBC): 0.9942
- I/Imax_+80mV (0Ca, 10 μM 1PBC): 0.7384
- I/Imax_-80mV (0Ca, 10 μM 1PBC): 0.9446
- I/Imax_+80mV (0Ca, 30 μM 1PBC): 0.483
- I/Imax_-80mV (0Ca, 30 μM 1PBC): 0.815
- I/Imax_+80mV (0Ca, 100 μM 1PBC): 0.2577
- I/Imax_-80mV (0Ca, 100 μM 1PBC): 0.578
- remaining activity at 1 µM (1 µM 1PBC, 0 mV, 2 µM Ca2+, read-out: I/Imax): 80%
- remaining activity at 3 µM [1]: 57.9%
- remaining activity at 3 µM [2]: 92.9%
- remaining activity at 10 µM [1]: 31.4%
- remaining activity at 10 µM [2]: 84.7%
- remaining activity at 30 µM [1]: 13.7%
- remaining activity at 30 µM [2]: 63.9%
- remaining activity at 100 µM (100 µM 1PBC, 0 mV, zero Ca2+, read-out: I/Imax): 39.9%
- I/Imax_+80mV (Ca, 1 μM 1PBC): 0.7635
- I/Imax_-80mV (Ca, 1 μM 1PBC): 0.9086
- I/Imax_+80mV (Ca, 3 μM 1PBC): 0.5067
- I/Imax_-80mV (Ca, 3 μM 1PBC): 0.7508
- I/Imax_+80mV (Ca, 10 μM 1PBC): 0.2578
- I/Imax_-80mV (Ca, 10 μM 1PBC): 0.4875
- I/Imax_+80mV (Ca, 30 μM 1PBC): 0.09866
- I/Imax_-80mV (Ca, 30 μM 1PBC): 0.2347
- Decrease in potency of block, Ca2+-free form vs Ca2+-bound state (zero vs 2 µM Ca2+): about ten-fold
Compound: N#Cc1c(C(F)(F)F)cc(O)n2c1nc1ccccc12 [1PBC]
